Measured values from ChEMBL document CHEMBL5247683 (ACS Med Chem Lett, 2023).

How the values were obtained:
JAK1/TYK2 = JAK1/TYK2 (Homo sapiens, UniProt P23458+P29597); test: Inhibition of JAK1/TYK2 in human M07E cells assessed as reduction of IFN alpha stimulated STAT phosphorylation preincubated for 30 mins followed by IFN alpha stimulation for 15 mins by flow cytometry method; format: cell-based
JAK3/JAK1 [1] = biological target: T1, JAK3/JAK1 (Homo sapiens, UniProt P23458+P52333); format: tissue-based, Blood
T1 sequence (P23458 whole entry, one chain of several, the tested form may be a part): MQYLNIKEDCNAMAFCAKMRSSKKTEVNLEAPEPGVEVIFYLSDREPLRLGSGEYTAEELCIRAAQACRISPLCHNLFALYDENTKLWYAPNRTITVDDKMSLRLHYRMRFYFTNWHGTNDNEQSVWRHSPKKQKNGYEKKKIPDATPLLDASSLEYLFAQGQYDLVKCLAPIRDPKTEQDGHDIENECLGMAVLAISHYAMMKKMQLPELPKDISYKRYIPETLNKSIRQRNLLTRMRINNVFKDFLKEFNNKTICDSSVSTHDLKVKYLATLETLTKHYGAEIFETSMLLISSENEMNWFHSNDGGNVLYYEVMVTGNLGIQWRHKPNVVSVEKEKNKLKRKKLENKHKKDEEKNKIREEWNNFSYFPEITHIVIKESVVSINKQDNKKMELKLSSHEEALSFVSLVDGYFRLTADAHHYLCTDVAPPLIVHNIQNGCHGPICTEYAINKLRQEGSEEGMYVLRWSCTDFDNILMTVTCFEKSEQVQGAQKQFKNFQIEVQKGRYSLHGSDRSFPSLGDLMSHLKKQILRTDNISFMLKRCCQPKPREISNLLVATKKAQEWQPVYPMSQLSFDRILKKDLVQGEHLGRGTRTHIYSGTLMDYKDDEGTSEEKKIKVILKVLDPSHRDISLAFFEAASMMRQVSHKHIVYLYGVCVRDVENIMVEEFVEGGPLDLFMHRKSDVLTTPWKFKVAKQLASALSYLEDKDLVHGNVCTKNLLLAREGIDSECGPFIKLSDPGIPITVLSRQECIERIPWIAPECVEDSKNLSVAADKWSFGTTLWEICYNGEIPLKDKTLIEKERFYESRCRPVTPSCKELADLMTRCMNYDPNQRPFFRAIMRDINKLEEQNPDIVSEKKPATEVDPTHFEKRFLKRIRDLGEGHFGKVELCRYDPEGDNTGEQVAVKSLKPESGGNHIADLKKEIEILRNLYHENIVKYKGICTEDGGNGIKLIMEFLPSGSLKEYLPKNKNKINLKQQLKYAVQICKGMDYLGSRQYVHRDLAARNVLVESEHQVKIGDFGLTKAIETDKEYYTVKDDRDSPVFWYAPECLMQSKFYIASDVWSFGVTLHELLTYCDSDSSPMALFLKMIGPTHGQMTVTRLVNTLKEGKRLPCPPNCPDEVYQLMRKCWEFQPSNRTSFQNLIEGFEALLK
Description: Inhibition of JAK1/JAK3 in human blood assessed as reduction of IL-2 stimulated STAT phosphorylation preincubated for 30 mins followed by IL-2 stimulation for 15 mins by flow cytometry method

[2] = biological target: Tyrosine-protein kinase JAK1 (Homo sapiens, UniProt P23458); test: Inhibition of GST-fused JAK1 (866 to 1154 residues) (unknown origin) using FITC-AhxKKSRGDYMTMQIG-NH2 peptide as substrate incubated for 60 mins in presence of ATP by Janus kinase assay
Sequence of Tyrosine-protein kinase JAK1 (P23458 whole entry, the tested form may be a part): as the sequence (P23458 whole entry, one chain of several, the tested form may be a part) above

[3] = biological target: Tyrosine-protein kinase JAK2 (Homo sapiens, UniProt O60674); test: Inhibition of GST-fused JAK2 (808 to 1132 residues) (unknown origin) using Carboxyfluorescein-Ahx-GGEEEEYFELVKKKK peptide as substrate incubated for 60 mins in presence of ATP by Janus kinase assay
Sequence of Tyrosine-protein kinase JAK2 (O60674 whole entry, the tested form may be a part): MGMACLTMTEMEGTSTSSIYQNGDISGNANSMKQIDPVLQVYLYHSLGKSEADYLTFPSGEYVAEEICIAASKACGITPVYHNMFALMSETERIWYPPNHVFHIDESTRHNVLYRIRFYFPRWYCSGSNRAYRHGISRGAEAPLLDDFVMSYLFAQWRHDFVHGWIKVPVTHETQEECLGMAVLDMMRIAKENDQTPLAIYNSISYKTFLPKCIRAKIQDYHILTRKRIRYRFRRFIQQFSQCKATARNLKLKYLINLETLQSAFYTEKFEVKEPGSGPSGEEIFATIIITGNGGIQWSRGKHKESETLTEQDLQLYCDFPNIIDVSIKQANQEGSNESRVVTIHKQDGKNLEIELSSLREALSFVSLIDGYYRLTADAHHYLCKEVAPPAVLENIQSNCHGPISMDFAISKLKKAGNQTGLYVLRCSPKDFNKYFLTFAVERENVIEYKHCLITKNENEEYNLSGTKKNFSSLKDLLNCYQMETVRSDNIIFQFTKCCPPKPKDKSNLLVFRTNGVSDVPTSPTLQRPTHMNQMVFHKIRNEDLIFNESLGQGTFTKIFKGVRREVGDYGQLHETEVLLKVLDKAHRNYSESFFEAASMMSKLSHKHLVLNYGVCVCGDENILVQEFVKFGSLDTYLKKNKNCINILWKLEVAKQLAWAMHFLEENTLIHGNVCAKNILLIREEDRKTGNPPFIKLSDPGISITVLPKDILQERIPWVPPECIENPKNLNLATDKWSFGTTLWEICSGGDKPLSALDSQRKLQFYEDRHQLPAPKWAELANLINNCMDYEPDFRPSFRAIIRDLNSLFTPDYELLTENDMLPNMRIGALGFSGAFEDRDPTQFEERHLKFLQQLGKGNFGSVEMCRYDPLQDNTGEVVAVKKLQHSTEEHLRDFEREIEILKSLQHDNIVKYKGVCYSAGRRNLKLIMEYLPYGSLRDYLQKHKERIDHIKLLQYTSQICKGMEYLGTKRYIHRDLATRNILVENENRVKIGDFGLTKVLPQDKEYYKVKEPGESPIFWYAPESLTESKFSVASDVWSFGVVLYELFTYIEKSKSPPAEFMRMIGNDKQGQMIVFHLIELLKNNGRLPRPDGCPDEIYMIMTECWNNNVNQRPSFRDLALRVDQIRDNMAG

[4] = biological target: T2, Tyrosine-protein kinase JAK3 (Homo sapiens, UniProt P52333); test: Inhibition of GST-fused JAK3 (811 to 1124 residues) (unknown origin) using Carboxyfluorescein-Ahx-GGEEEEYFELVKKKK peptide as substrate incubated for 60 mins in presence of ATP by Janus kinase assay
T2 sequence (P52333 whole entry): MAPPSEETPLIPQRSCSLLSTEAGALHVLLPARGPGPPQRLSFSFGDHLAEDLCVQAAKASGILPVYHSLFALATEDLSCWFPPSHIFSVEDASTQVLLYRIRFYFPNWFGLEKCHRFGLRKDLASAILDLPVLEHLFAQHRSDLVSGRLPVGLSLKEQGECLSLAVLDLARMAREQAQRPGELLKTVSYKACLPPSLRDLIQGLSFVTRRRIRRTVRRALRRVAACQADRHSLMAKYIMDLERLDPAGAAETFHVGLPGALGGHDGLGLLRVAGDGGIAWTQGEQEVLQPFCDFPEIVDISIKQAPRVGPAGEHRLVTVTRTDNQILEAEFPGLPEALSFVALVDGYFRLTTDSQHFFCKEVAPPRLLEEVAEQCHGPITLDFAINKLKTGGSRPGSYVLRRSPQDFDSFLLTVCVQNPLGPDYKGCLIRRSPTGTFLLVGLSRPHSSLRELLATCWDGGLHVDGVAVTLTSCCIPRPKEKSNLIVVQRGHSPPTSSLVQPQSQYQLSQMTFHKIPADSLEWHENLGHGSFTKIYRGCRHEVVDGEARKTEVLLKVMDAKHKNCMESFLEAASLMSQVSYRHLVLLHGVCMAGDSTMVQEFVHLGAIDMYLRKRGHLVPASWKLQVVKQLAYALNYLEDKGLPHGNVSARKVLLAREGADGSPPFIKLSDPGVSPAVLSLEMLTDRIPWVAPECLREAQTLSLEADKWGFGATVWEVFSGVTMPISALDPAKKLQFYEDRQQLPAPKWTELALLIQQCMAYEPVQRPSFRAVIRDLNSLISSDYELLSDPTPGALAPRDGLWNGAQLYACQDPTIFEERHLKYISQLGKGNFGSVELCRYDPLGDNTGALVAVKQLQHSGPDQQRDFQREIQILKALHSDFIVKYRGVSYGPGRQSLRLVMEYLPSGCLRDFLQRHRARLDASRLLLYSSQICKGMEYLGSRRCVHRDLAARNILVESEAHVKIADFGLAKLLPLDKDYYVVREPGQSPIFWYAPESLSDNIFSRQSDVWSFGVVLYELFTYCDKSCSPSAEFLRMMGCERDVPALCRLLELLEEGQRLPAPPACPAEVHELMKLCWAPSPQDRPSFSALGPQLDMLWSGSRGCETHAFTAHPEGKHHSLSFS

JAK3/JAK1 [5] = biological target: T1, JAK3/JAK1; test: Inhibition of JAK1/JAK3 in human M07E cells assessed as reduction of IL-15 stimulated STAT phosphorylation preincubated for 30 mins followed by IL-15 stimulation for 15 mins by flow cytometry method; format: cell-based
[6] = biological target: Non-receptor tyrosine-protein kinase TYK2 (Homo sapiens, UniProt P29597); test: Inhibition of GST-fused Tyk2 (888 to 1187 residues) (unknown origin) using FITC-AhxKKSRGDYMTMQIG-NH2 peptide as substrate incubated for 60 mins in presence of ATP by Janus kinase assay
Sequence of Non-receptor tyrosine-protein kinase TYK2 (P29597 whole entry, the tested form may be a part): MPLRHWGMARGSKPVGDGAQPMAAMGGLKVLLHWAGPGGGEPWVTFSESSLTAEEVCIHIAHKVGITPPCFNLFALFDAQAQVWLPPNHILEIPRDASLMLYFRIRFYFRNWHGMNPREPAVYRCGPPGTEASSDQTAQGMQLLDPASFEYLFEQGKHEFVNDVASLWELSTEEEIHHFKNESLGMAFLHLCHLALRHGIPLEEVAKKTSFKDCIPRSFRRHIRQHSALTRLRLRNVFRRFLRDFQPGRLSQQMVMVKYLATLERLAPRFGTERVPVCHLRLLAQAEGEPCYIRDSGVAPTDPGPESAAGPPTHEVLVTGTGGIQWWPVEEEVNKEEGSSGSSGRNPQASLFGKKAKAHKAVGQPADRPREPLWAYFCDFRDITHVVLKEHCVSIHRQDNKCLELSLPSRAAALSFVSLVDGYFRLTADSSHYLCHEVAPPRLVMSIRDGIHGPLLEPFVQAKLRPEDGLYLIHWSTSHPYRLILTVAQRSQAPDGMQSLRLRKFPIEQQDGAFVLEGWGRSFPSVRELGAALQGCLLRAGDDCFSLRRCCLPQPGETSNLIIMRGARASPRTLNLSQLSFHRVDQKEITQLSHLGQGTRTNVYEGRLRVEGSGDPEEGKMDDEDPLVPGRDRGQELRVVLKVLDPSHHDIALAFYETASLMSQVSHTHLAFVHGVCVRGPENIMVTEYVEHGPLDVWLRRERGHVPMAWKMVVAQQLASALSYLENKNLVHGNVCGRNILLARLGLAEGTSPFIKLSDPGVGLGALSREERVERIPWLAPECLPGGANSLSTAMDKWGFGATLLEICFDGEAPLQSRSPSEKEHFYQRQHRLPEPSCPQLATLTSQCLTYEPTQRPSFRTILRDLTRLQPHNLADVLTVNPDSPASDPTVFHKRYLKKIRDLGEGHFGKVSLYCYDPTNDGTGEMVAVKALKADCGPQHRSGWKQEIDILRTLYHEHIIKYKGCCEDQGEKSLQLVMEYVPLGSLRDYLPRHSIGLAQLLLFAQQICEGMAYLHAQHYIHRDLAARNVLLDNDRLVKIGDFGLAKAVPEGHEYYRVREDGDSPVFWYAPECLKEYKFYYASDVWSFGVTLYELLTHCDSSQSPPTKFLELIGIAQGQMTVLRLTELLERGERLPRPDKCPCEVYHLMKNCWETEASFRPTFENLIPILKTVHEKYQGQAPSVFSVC

[7] = Dissociation constant, pKa of compound; format: physicochemical
[8] = biological target: Glycogen synthase kinase-3 beta (Homo sapiens, UniProt P49841); test: Inhibition of GSK3B (unknown origin)
Sequence of Glycogen synthase kinase-3 beta (P49841 whole entry): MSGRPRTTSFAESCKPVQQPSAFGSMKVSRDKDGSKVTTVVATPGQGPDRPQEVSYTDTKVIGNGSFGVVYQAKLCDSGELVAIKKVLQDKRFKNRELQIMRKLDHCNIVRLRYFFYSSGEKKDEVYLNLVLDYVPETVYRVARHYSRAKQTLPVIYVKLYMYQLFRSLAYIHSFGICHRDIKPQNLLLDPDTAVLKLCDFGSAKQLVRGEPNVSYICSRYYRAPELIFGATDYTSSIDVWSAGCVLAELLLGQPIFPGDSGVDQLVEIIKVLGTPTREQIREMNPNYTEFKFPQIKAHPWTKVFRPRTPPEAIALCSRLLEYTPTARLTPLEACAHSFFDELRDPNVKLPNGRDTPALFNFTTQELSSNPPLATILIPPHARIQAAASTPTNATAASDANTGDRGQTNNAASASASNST

[9] = biological target: Vascular endothelial growth factor receptor 2 (Homo sapiens, UniProt P35968); test: Inhibition of KDR (unknown origin)
Aurora kinase A = biological target: T3, Aurora kinase A (Homo sapiens, UniProt O14965); test: Inhibition of AuroraA (unknown origin)
T3 sequence (O14965 whole entry): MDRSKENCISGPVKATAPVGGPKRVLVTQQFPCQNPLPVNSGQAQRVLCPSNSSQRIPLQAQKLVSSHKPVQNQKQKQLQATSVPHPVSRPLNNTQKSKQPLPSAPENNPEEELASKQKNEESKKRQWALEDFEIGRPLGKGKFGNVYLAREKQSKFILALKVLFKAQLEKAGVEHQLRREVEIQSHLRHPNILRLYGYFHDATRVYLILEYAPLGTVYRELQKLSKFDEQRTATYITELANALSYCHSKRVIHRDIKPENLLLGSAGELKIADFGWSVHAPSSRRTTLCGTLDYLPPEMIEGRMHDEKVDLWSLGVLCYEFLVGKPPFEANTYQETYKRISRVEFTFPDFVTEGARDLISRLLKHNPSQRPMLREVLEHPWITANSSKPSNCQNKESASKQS

[10] = biological target: T4, Interleukin-1 receptor-associated kinase 4 (Homo sapiens, UniProt Q9NWZ3); test: Inhibition of IRAK4 (unknown origin)
T4 sequence (Q9NWZ3 whole entry): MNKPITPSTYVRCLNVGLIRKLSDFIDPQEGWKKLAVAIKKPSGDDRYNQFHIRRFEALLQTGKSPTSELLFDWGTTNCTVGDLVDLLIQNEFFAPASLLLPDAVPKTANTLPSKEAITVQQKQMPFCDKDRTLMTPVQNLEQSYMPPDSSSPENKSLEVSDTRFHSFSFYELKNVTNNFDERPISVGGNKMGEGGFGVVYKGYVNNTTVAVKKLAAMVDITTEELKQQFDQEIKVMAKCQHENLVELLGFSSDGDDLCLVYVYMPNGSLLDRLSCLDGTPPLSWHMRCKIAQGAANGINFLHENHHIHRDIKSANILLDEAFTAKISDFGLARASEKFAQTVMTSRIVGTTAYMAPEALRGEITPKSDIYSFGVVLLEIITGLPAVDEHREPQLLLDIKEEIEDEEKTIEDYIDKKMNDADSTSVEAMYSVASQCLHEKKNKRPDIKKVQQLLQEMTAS

[11] = biological target: T5, Receptor-type tyrosine-protein kinase FLT3 (Homo sapiens, UniProt P36888); test: Inhibition of FLT3 (unknown origin)
T5 sequence (P36888 whole entry): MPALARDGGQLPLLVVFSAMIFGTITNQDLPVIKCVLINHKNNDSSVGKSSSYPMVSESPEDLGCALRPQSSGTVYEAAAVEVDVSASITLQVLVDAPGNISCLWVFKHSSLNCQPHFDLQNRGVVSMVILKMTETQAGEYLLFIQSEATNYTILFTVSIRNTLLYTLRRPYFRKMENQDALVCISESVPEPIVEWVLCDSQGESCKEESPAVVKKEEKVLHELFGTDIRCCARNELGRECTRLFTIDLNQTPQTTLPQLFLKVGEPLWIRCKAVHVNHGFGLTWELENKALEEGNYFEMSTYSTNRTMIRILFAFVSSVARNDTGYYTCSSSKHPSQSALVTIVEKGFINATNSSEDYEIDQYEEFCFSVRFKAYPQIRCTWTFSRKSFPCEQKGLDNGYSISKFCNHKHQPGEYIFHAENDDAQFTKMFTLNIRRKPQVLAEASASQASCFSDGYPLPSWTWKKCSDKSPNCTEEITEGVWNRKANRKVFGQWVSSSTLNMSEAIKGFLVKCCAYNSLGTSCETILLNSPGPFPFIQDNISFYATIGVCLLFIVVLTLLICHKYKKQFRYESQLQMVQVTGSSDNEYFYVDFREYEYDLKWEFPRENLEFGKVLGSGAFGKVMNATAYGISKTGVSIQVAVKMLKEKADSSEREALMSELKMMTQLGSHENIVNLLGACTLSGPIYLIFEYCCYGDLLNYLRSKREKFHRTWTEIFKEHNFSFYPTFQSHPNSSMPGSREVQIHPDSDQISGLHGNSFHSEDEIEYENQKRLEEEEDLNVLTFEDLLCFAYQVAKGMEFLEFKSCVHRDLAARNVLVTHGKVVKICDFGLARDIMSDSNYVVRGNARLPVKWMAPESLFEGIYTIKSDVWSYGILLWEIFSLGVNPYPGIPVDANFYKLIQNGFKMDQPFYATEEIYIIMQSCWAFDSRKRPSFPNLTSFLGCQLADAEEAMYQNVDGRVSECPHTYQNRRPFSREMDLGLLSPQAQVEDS

[12] = biological target: T6, Serine/threonine-protein kinase 4 (Homo sapiens, UniProt Q13043); test: Inhibition of STK4 (unknown origin)
T6 sequence (Q13043 whole entry): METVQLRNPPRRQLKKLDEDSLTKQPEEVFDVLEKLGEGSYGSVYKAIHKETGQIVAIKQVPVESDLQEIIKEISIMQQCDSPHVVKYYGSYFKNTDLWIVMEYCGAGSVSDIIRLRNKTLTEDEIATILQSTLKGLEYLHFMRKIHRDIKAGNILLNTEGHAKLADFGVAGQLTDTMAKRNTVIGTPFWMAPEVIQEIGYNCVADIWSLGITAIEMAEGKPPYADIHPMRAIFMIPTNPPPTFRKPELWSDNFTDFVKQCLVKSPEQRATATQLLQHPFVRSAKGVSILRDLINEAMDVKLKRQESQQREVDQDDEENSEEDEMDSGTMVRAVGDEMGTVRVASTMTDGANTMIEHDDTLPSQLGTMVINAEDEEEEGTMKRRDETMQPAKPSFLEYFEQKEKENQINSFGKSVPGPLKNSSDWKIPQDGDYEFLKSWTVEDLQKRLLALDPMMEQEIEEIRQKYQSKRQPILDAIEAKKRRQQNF

[13] = biological target: Tyrosine-protein kinase Lck (Homo sapiens, UniProt P06239); test: Inhibition of LCK (unknown origin)
Sequence of Tyrosine-protein kinase Lck (P06239 whole entry): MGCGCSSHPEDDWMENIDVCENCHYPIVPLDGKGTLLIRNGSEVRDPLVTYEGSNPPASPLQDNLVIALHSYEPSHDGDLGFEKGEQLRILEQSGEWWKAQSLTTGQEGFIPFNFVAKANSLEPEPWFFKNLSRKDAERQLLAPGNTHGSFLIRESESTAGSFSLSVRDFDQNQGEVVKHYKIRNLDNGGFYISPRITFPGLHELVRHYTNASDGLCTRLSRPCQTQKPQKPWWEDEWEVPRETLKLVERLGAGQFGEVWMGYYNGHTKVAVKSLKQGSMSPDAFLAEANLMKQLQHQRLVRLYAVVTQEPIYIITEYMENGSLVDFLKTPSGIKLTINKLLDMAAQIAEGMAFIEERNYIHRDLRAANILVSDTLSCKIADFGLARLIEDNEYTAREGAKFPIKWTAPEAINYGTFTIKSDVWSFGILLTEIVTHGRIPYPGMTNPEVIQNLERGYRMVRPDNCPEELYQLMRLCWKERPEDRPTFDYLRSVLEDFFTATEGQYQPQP

[14] = Inhibition of p70S6K (unknown origin); design: species or system Homo sapiens
in vitro = details: human, liver microsomes
Description: Intrinsic clearance in human liver microsomes

Sequence of JAK1/TYK2 (P23458 whole entry): as the sequence (P23458 whole entry, one chain of several, the tested form may be a part) above
Sequence of JAK1/TYK2 (P29597 whole entry): as the sequence (P29597 whole entry, the tested form may be a part) above

| IC50 (JAK1/TYK2) [nM] | IC50 (JAK3/JAK1 [1]) [nM] | IC50 [2] [nM] | IC50 [3] [nM] | IC50 [4] [nM] | IC50 (JAK3/JAK1 [5]) [nM] | IC50 [6] [nM] | pKa [7] | IC50 [8] [nM] | IC50 [9] [nM] | IC50 (Aurora kinase A) [nM] | IC50 [10] [nM] | IC50 [11] [nM] | IC50 [12] [nM] | IC50 [13] [nM] | IC50 [14] [nM] | microsomal CLint (in vitro) [µL/min/mg] | Compound |
| --- | --- | --- | --- | --- | --- | --- | --- | --- | --- | --- | --- | --- | --- | --- | --- | --- | --- |
| 290 | 525 | 14 | 20 | 20 | 218 | – | – | – | – | – | – | – | – | – | – | – | NC(=O)c1cnc(Nc2ccc(O)cn2)cc1Nc1ccccc1Cl |
| 271 | 2170 | 103 | 76 | 89 | 169 | 77 | – | – | – | – | – | – | – | – | – | – | COc1cccc(Nc2cc(Nc3ccccc3Cl)c(C(N)=O)cn2)n1 |
| – | – | – | – | – | – | 60 | 6.2 | – | – | – | – | – | – | – | – | – | Cc1cccc(Nc2cc(Nc3ccccc3Cl)c(C(N)=O)cn2)n1 |
| > 10000 | > 30000 | 3270 | 3150 | 4560 | > 10000 | 2090 | – | > 2500 | > 2500 | > 2500 | > 2500 | > 2500 | > 2500 | > 2500 | > 2500 | – | NC(=O)c1cnc(Nc2cccc(O)n2)cc1Nc1ccccc1Cl |
| 71 | > 30000 | 131 | 52 | 76 | 116 | 59 | – | – | – | – | – | – | – | – | – | – | CCOC(=O)Oc1cccc(Nc2cc(Nc3ccccc3Cl)c(C(N)=O)cn2)n1 |
| – | – | – | – | – | – | – | – | – | – | – | – | – | – | – | – | < 25 | C[C@H]1CN(C(=O)CC#N)[C@]12CCN(c1ncnc3[nH]ccc13)C2 [DELGOCITINIB] |
